Measured values: US20230058171A1, “NEW ORAL PHARMACEUTICAL COMPOSITION FOR CANCER THERAPY” (BOEHRINGER INGELHEIM INTERNATIONAL GMBH, priority 2021, published 2023)
Read-outs that look alike come from different tables or passages of the source.

Assay: Preliminary pharmacokinetics in trial 1403-0001 (Arm A D1 q3w, Arm B D1 D8 q4w)
Assay type: in vivo, human
Details: for Vd/F / half-life / Tmax / AUC(0-inf) / Cmax: human, plasma, oral
Text: Preliminary PK data were available from the first 45 treated patients in study 1403-0001. The exploratory PK analysis is based on planned blood sampling time-points and the results are subject to change because not all samples from these patients have been analyzed yet. Therefore, AUCs may be incomplete. In addition, information on the absorption, distribution, and elimination of the MDM2 antagonist of formula I are descriptive given the limited exploratory PK results available up to this point in time.
Consequently the preliminary PK results support the dose selection of 45 mg (and alternatively even of 30 mg) combined with the once in three weeks (D1 q3w) dose regimen. The tmax of the MDM2 antagonist of formula I is generally between 4 and 6 hours after tablet intake.

Cc1c(C(=O)O)ccc2c3n(nc12)[C@@H]1[C@H](C3)N(CC2CC2)[C@@]2(C(=O)Nc3cc(Cl)ccc32)[C@H]1c1cccc(Cl)c1F [MDM2-antagonist of formula I, (2′S,3′S,3a'S,10a'S)-6-chloro-3′-(3-chloro-2-fluorophenyl)-1′-(cyclopropylmethyl)-6′-methyl-2-oxo-1,2,3′,3a′,10′,10a′-hexahydro-1′H-spiro[indole-3,2′-pyrrolo[2′,3′:4,5]pyrrolo[1,2-b]indazole]-7′-carboxylic acid]
Vd/F (10 mg, Day 1, D1 D8 q4w (Arm B), gMean, N=3, read-out: Vz/F): 24.5 L | half-life (10 mg, Day 1, D1 D8 q4w (Arm B), gMean, N=3, read-out: t1/2 (converted)): 52.4 h | Tmax (10 mg, Day 1, D1 D8 q4w (Arm B), median, N=3, read-out: tmax): 6 h | AUC(0-inf) (10 mg, Day 8, D1 D8 q4w (Arm B), gMean, N=3, read-out: AUC0-∞): 48.4 µM·h | Cmax (10 mg, Day 8, D1 D8 q4w (Arm B), gMean, N=3, read-out: Cmax): 714 nM | Vd/F (10 mg, Day 8, D1 D8 q4w (Arm B), gMean, N=3, read-out: Vz/F): 23.1 L | half-life (10 mg, Day 8, D1 D8 q4w (Arm B), gMean, N=3, read-out: t1/2 (converted)): 45.9 h | Tmax (10 mg, Day 8, D1 D8 q4w (Arm B), median, N=3, read-out: tmax): 5 h | AUC(0-inf) (15 mg, Day 1, D1 D8 q4w (Arm B), gMean, N=3, read-out: AUC0-∞): 37.8 µM·h | Cmax (15 mg, Day 1, D1 D8 q4w (Arm B), gMean, N=3, read-out: Cmax): 831 nM | Vd/F (15 mg, Day 1, D1 D8 q4w (Arm B), gMean, N=3, read-out: Vz/F): 32.3 L | half-life (15 mg, Day 1, D1 D8 q4w (Arm B), gMean, N=3, read-out: t1/2 (converted)): 33.4 h | Tmax (15 mg, Day 1, D1 D8 q4w (Arm B), median, N=3, read-out: tmax): 5 h | AUC(0-inf) (15 mg, Day 8, D1 D8 q4w (Arm B), gMean, N=2, read-out: AUC0-∞): 25.8 µM·h | Vd/F (15 mg, Day 8, D1 D8 q4w (Arm B), gMean, N=2, read-out: Vz/F): 37.3 L | half-life (15 mg, Day 8, D1 D8 q4w (Arm B), gMean, N=2, read-out: t1/2 (converted)): 26.3 h | Cmax (15 mg, Day 8, D1 D8 q4w (Arm B), gMean, N=3, read-out: Cmax): 776 nM | Tmax (15 mg, Day 8, D1 D8 q4w (Arm B), median, N=3, read-out: tmax): 4 h | Cmax (20 mg, Arm A D1 q3w, 20 mg, N=2, read-out: Cmax (gMean)): 1160 nM | Tmax (20 mg, Arm A D1 q3w, 20 mg, N=2, read-out: tmax (median)): 5.5 h | AUC(0-inf) (20 mg, Day 1, D1 D8 q4w (Arm B), gMean, N=3, read-out: AUC0-∞): 88.9 µM·h | Cmax (20 mg, Day 1, D1 D8 q4w (Arm B), gMean, N=3, read-out: Cmax): 1370 nM | Vd/F (20 mg, Day 1, D1 D8 q4w (Arm B), gMean, N=3, read-out: Vz/F): 27.7 L | half-life (20 mg, Day 1, D1 D8 q4w (Arm B), gMean, N=3, read-out: t1/2 (converted)): 50.5 h | Tmax (20 mg, Day 1, D1 D8 q4w (Arm B), median, N=3, read-out: tmax): 4 h | AUC(0-inf) (20 mg, Day 8, D1 D8 q4w (Arm B), gMean, N=3, read-out: AUC0-∞): 61.1 µM·h | Cmax (20 mg, Day 8, D1 D8 q4w (Arm B), gMean, N=3, read-out: Cmax): 1220 nM | Vd/F (20 mg, Day 8, D1 D8 q4w (Arm B), gMean, N=3, read-out: Vz/F): 30.5 L | half-life (20 mg, Day 8, D1 D8 q4w (Arm B), gMean, N=3, read-out: t1/2 (converted)): 38.2 h | Tmax (20 mg, Day 8, D1 D8 q4w (Arm B), median, N=3, read-out: tmax): 3 h | AUC(0-inf) (30 mg, Arm A D1 q3w, 30 mg, N=3, read-out: AUC0-∞, gMean (gCV [%])): 113 µM·h | Cmax (30 mg, Arm A D1 q3w, 30 mg, N=3, read-out: Cmax (gMean)): 2890 nM | Vd/F (30 mg, Arm A D1 q3w, 30 mg, N=3, read-out: Vz/F, gMean (gCV [%])): 23.6 L | Tmax (30 mg, Arm A D1 q3w, 30 mg, N=3, read-out: tmax (median)): 4 h | AUC(0-inf) (30 mg, Day 1, D1 D8 q4w (Arm B), gMean, N=4, read-out: AUC0-∞): 79.9 µM·h | Cmax (30 mg, Day 1, D1 D8 q4w (Arm B), gMean, N=4, read-out: Cmax): 1440 nM | Vd/F (30 mg, Day 1, D1 D8 q4w (Arm B), gMean, N=4, read-out: Vz/F): 33.1 L | half-life (30 mg, Day 1, D1 D8 q4w (Arm B), gMean, N=4, read-out: t1/2 (converted)): 36.2 h | Tmax (30 mg, Day 1, D1 D8 q4w (Arm B), median, N=4, read-out: tmax): 4.5 h | AUC(0-inf) (30 mg, Day 8, D1 D8 q4w (Arm B), gMean, N=3, read-out: AUC0-∞): 64.8 µM·h | Cmax (30 mg, Day 8, D1 D8 q4w (Arm B), gMean, N=3, read-out: Cmax): 1330 nM | Vd/F (30 mg, Day 8, D1 D8 q4w (Arm B), gMean, N=3, read-out: Vz/F): 44.6 L | half-life (30 mg, Day 8, D1 D8 q4w (Arm B), gMean, N=3, read-out: t1/2 (converted)): 39.5 h | Tmax (30 mg, Day 8, D1 D8 q4w (Arm B), median, N=3, read-out: tmax): 4 h | AUC(0-inf) (45 mg, Arm A D1 q3w, 45 mg, N=6, read-out: AUC0-∞, gMean (gCV [%])): 137 µM·h | Cmax (45 mg, Arm A D1 q3w, 45 mg, N=6, read-out: Cmax (gMean)): 2710 nM | Vd/F (45 mg, Arm A D1 q3w, 45 mg, N=6, read-out: Vz/F, gMean (gCV [%])): 35.1 L | half-life (45 mg, Arm A D1 q3w, 45 mg, N=6, read-out: t1/2 (gMean) (converted)): 43.7 h | Tmax (45 mg, Arm A D1 q3w, 45 mg, N=6, read-out: tmax (median)): 4 h | AUC(0-inf) (45 mg, Day 1, D1 D8 q4w (Arm B), gMean, N=2, read-out: AUC0-∞): 96.9 µM·h | Cmax (45 mg, Day 1, D1 D8 q4w (Arm B), gMean, N=2, read-out: Cmax): 2330 nM | Vd/F (45 mg, Day 1, D1 D8 q4w (Arm B), gMean, N=2, read-out: Vz/F): 34 L | half-life (45 mg, Day 1, D1 D8 q4w (Arm B), gMean, N=2, read-out: t1/2 (converted)): 30 h | Tmax (45 mg, Day 1, D1 D8 q4w (Arm B), median, N=2, read-out: tmax): 4 h | AUC(0-inf) (50 mg, Arm A D1 q3w, 50 mg, N=4, read-out: AUC0-∞, gMean (gCV [%])): 314 µM·h | Cmax (50 mg, Arm A D1 q3w, 50 mg, N=4, read-out: Cmax (gMean)): 3740 nM | Vd/F (50 mg, Arm A D1 q3w, 50 mg, N=4, read-out: Vz/F, gMean (gCV [%])): 23.7 L | half-life (50 mg, Arm A D1 q3w, 50 mg, N=4, read-out: t1/2 (gMean) (converted)): 60.9 h | Tmax (50 mg, Arm A D1 q3w, 50 mg, N=4, read-out: tmax (median)): 5.5 h | AUC(0-inf) (60 mg, Arm A D1 q3w, 60 mg, N=6, read-out: AUC0-∞, gMean (gCV [%])): 163 µM·h | Vd/F (60 mg, Arm A D1 q3w, 60 mg, N=6, read-out: Vz/F, gMean (gCV [%])): 31.4 L | half-life (60 mg, Arm A D1 q3w, 60 mg, N=6, read-out: t1/2 (gMean) (converted)): 34.9 h | Cmax (60 mg, Arm A D1 q3w, 60 mg, N=7, read-out: Cmax (gMean)): 3270 nM | Tmax (60 mg, Arm A D1 q3w, 60 mg, N=7, read-out: tmax (median)): 5 h | AUC(0-inf) (60 mg, Day 1, D1 D8 q4w (Arm B), gMean, N=2, read-out: AUC0-∞): 87.7 µM·h | Cmax (60 mg, Day 1, D1 D8 q4w (Arm B), gMean, N=2, read-out: Cmax): 1960 nM | Vd/F (60 mg, Day 1, D1 D8 q4w (Arm B), gMean, N=2, read-out: Vz/F): 57 L | half-life (60 mg, Day 1, D1 D8 q4w (Arm B), gMean, N=2, read-out: t1/2 (converted)): 34.2 h | Tmax (60 mg, Day 1, D1 D8 q4w (Arm B), median, N=2, read-out: tmax): 6 h | Cmax (60 mg, Day 8, D1 D8 q4w (Arm B), gMean, N=2, read-out: Cmax): 1890 nM | Tmax (60 mg, Day 8, D1 D8 q4w (Arm B), median, N=2, read-out: tmax): 16 h | AUC(0-inf) (80 mg, Arm A D1 q3w, 80 mg, N=2, read-out: AUC0-∞, gMean (gCV [%])): 205 µM·h | Cmax (80 mg, Arm A D1 q3w, 80 mg, N=2, read-out: Cmax (gMean)): 3930 nM | Vd/F (80 mg, Arm A D1 q3w, 80 mg, N=2, read-out: Vz/F, gMean (gCV [%])): 26.5 L | half-life (80 mg, Arm A D1 q3w, 80 mg, N=2, read-out: t1/2 (gMean) (converted)): 27.9 h | Tmax (80 mg, Arm A D1 q3w, 80 mg, N=2, read-out: tmax (median)): 3.5 h | Tmax (after tablet intake, across dose groups, read-out: tmax): 4 to 6 h | half-life (range across dose groups, read-out: half-life): 27.9 to 60.9 h | half-life (Arm A D1 q3w, 30 mg, N=3, read-out: t1/2 (gMean) (converted)): 36.4 h | clearance (humans, preliminary PK data): low clearance | dose levels at which exposure (Cmax and AUC0-inf) is above predicted therapeutic exposures (humans, preliminary PK data): ≥ 15 mg | volume of distribution (humans, preliminary PK data): very low volume of distribution
